The text below walks through data of ChEMBL document CHEMBL5291721, “A preclinical secondary pharmacology resource illuminates target-adverse drug reaction associations of marketed drugs” (Nat Commun, 2023).

In test [1] the target is T1, Alpha-1A adrenergic receptor (Homo sapiens, UniProt P35348).
T1 sequence (P35348 whole entry): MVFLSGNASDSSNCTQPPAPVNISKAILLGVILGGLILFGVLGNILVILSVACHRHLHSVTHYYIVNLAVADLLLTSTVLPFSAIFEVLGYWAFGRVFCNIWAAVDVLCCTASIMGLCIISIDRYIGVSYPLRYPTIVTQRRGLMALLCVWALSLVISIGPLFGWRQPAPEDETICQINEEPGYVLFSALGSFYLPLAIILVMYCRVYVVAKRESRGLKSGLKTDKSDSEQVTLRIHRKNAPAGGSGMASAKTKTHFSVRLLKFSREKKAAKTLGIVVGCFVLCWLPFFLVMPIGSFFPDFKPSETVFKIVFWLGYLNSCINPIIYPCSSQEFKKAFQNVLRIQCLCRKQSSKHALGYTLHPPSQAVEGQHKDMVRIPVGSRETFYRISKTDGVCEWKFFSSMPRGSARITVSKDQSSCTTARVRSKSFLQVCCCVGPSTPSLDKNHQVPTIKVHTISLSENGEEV

In another test the target is Vasopressin V1a receptor (Homo sapiens, UniProt P37288).
Chain of Vasopressin V1a receptor (P37288 whole entry): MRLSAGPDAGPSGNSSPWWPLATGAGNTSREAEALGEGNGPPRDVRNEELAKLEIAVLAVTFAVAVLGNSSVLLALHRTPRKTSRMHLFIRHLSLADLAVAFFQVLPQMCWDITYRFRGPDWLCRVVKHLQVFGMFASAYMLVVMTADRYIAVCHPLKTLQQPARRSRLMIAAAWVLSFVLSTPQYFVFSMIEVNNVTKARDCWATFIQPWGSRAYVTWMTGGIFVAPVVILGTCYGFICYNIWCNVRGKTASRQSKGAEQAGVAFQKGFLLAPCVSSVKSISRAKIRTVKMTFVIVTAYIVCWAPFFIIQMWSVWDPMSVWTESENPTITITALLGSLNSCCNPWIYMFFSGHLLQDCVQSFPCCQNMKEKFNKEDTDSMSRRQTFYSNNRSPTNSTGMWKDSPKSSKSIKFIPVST
Test [2] has as its target T2, Cholecystokinin receptor type A (Homo sapiens, UniProt P32238).
T2 sequence (P32238 whole entry): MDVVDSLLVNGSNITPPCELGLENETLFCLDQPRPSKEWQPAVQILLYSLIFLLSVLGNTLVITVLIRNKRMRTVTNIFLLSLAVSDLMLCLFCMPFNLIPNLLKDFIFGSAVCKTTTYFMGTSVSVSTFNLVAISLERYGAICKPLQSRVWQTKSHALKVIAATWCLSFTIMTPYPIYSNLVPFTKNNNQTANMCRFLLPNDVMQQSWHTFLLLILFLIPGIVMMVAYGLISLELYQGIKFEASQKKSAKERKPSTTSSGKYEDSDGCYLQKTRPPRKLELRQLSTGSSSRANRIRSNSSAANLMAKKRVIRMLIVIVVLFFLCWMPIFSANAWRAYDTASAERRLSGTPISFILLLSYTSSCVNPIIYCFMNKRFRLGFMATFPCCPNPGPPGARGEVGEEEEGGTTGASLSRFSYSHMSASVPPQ

For test [3], the target named is T3, 5-hydroxytryptamine receptor 3A (Homo sapiens, UniProt P46098).
T3 sequence (P46098 whole entry): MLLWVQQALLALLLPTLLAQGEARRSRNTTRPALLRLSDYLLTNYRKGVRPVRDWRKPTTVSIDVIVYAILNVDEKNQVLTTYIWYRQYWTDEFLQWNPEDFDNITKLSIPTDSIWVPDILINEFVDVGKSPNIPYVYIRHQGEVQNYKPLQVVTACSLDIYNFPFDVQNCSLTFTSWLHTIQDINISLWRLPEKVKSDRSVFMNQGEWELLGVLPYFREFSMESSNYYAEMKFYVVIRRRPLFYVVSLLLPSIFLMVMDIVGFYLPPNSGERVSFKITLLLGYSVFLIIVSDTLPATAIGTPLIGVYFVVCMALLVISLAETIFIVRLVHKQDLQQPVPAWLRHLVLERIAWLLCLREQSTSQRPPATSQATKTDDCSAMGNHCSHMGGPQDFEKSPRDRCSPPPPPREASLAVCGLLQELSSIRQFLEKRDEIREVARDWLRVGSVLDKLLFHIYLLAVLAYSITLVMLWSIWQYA
The test is classed as functional.

The target in another test is Melanocortin receptor 3 (Homo sapiens, UniProt P41968).
Chain of Melanocortin receptor 3 (P41968 whole entry): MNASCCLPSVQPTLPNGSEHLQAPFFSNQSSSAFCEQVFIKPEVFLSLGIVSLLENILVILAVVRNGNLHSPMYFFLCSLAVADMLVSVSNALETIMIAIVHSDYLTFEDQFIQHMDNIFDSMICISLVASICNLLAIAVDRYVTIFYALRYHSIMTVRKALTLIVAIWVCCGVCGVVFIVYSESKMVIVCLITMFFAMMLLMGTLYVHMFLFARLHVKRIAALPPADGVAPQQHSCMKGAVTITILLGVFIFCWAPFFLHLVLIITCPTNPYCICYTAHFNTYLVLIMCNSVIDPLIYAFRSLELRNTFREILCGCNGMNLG
The target of test [4] is T4, Neuropeptide Y receptor type 1 (Homo sapiens, UniProt P25929).
T4 sequence (P25929 whole entry): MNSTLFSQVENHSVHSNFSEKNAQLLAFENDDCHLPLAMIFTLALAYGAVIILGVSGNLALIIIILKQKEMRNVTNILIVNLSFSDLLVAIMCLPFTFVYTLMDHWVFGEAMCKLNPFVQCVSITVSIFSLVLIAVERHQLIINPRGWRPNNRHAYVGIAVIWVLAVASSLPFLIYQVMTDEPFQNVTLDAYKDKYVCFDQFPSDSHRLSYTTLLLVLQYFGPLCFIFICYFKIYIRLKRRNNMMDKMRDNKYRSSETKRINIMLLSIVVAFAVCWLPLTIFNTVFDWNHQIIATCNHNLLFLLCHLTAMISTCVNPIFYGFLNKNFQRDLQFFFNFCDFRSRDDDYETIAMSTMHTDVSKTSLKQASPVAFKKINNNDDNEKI

In another test the target is T5, Glucocorticoid receptor (Homo sapiens, UniProt P04150).
T5 sequence (P04150 whole entry): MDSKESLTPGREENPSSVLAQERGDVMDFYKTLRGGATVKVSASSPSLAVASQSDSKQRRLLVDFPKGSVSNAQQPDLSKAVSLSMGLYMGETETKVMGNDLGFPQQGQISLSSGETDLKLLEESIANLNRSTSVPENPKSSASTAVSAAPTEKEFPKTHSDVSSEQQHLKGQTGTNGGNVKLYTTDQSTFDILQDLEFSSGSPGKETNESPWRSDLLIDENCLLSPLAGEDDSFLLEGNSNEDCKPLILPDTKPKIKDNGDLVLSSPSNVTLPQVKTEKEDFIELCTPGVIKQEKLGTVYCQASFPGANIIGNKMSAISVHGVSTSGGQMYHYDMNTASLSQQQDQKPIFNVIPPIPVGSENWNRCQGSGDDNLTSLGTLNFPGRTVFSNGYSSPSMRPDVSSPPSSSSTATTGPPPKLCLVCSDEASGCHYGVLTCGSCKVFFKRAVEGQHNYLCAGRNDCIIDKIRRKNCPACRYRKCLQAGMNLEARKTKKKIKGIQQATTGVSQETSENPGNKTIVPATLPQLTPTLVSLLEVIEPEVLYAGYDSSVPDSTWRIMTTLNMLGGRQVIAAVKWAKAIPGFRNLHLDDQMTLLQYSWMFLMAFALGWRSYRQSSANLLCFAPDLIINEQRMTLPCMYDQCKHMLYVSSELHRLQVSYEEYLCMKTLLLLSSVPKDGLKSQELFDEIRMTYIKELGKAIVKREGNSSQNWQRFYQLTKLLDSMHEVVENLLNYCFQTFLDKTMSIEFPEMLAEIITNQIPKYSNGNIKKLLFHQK

Test [5] concerns the target Sodium-dependent dopamine transporter (Homo sapiens, UniProt Q01959).
In test [6] the target is Sodium-dependent noradrenaline transporter (Homo sapiens, UniProt P23975).
Chain of Sodium-dependent noradrenaline transporter (P23975 whole entry): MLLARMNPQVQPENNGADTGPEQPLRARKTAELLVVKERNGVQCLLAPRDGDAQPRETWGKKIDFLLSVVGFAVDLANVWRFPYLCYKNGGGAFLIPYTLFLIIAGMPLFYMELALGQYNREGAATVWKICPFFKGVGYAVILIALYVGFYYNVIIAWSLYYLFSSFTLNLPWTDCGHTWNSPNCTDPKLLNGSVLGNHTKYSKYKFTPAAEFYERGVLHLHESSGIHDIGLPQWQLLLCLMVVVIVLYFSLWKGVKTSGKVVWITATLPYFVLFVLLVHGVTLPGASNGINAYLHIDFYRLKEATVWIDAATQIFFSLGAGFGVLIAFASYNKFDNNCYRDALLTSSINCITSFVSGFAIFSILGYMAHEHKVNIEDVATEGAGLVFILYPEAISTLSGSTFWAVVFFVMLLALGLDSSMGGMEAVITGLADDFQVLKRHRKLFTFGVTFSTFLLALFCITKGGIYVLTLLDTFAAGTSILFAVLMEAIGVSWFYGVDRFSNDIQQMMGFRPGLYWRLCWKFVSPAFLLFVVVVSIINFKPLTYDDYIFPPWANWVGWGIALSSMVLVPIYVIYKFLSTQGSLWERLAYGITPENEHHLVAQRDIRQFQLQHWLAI
The target of test [7] is T1, Alpha-1A adrenergic receptor. In kind it is functional, cell-based.
Note: assay procedure not described here.

Chain of Sodium-dependent dopamine transporter (Q01959 whole entry): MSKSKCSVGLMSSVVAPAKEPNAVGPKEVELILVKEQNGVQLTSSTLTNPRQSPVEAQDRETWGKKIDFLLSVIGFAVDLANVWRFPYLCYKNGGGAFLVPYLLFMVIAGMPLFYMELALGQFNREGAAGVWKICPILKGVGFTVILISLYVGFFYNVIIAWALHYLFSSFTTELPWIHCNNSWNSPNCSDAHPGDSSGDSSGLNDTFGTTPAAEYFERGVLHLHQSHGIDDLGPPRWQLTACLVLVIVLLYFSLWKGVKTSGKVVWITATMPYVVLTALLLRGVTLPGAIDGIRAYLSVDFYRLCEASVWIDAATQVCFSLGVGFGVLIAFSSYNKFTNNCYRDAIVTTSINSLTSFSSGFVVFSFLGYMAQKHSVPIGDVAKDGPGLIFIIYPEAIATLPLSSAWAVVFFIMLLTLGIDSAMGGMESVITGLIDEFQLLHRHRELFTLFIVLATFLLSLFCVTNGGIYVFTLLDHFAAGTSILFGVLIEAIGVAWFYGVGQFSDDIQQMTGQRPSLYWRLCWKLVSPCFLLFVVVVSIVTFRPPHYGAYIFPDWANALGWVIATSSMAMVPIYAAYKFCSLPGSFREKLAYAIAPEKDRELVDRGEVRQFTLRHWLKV

In the case of `O=C(/C=C/c1cccc(S(=O)(=O)Nc2ccccc2)c1)NO` [BELINOSTAT], the AC50 – broadly, the concentration giving half of the maximal activity seen – in [1] was > 10 µM; at Vasopressin V1a receptor, > 10 µM; in [2] it was > 30 µM; in [3], > 30 µM; at Melanocortin receptor 3, > 30 µM; in test [4], > 30 µM. Also, the AC50 was > 30 µM on Glucocorticoid receptor, > 10 µM in [5] and > 10 µM in test [6].
Turning to `C[N+]1(C)CCC(=C(c2ccccc2)c2ccccc2)CC1`, the AC50 was > 10 µM in test [1]; > 30 µM on Vasopressin V1a receptor; > 30 µM in test [2]; 6.1 µM in test [3]; > 30 µM on Melanocortin receptor 3; > 30 µM in test [4]. Further, the AC50 (at Glucocorticoid receptor; in test [5]; in [6]) was > 10 µM each time.
On to `CC(C)(Oc1ccc(CCNC(=O)c2ccc(Cl)cc2)cc1)C(=O)O` [BEZAFIBRATE], for which the AC50 in test [1] was > 10 µM; at Vasopressin V1a receptor it was > 10 µM; in test [2] it was > 10 µM; in test [3], > 30 µM; at Melanocortin receptor 3, > 10 µM; in [4] it was > 10 µM. The AC50 (on Glucocorticoid receptor; in test [5]; in test [6]) was > 10 µM in each case.
With `Cc1ccccc1N1C(=O)c2cc(S(N)(=O)=O)c(Cl)cc2NC1C` (stereo unspecified) [METOLAZONE], the AC50 in test [1] was > 10 µM; in test [2], > 10 µM; in [3] it was > 30 µM; at Melanocortin receptor 3 it was > 10 µM; in [4] it was > 10 µM; on Glucocorticoid receptor, > 10 µM. For the same molecule, the AC50 in test [5] and in test [6] was > 10 µM in each case.
In the case of `C[C@]12C=CC(=O)C=C1CC[C@@H]1[C@@H]2CC[C@]2(C)OC(=O)CC[C@@H]12` [TESTOLACTONE], the AC50 in [1] was > 10 µM; on Vasopressin V1a receptor, > 10 µM; in [2], > 10 µM; in [3] it was > 30 µM; at Melanocortin receptor 3, > 10 µM; in test [4], > 10 µM. Moreover, the AC50 in [5] and in test [6] was > 10 µM in each case.
As to `COc1ccc([C@@H]2CC(=O)c3c(O)cc(O)cc3O2)cc1O` [HESPERETIN], the AC50 in [1] was > 30 µM; at Vasopressin V1a receptor it was > 10 µM; in test [2], > 10 µM; in test [3] it was > 30 µM; on Melanocortin receptor 3, > 10 µM; in test [4], > 10 µM. For the same molecule, the AC50 (at Glucocorticoid receptor; in test [5]; in test [6]) was > 10 µM throughout.
For the molecule `CN(Cc1cnc2nc(N)nc(N)c2n1)c1ccc(C(=O)N[C@@H](CCC(=O)O)C(=O)O)cc1` [METHOTREXATE], the AC50 in [1] is > 10 µM; on Vasopressin V1a receptor it was > 30 µM; in [2] it was > 30 µM; in test [3], > 30 µM; at Melanocortin receptor 3, > 30 µM; in [4] it was > 30 µM. Also, the AC50 in test [5] and in test [6] was > 30 µM in each case.
As to `C[C@]12CCC(=O)C[C@@H]1CC[C@@H]1[C@@H]2CC[C@]2(C)[C@@H](O)CC[C@@H]12` [STANOLONE], the AC50 (in test [1]; in test [2]; in test [3]; on Melanocortin receptor 3; in test [4]; in test [5]) was > 30 µM each time. Also, in test [6], the AC50 is > 30 µM.
Take `CCOC(=O)c1ccc(N)cc1` [BENZOCAINE]: the AC50 was > 10 µM in test [1]; > 10 µM in test [2]; > 30 µM in [3]; > 10 µM on Melanocortin receptor 3; > 10 µM in [4]; > 10 µM at Glucocorticoid receptor. Further, the AC50 in test [5] and in test [6] was > 10 µM each time.
With `CN(C)CCCN1c2ccccc2CCc2ccccc21` [IMIPRAMINE], the AC50 in test [1] was 0.0804 µM; at Vasopressin V1a receptor it was > 10 µM; in [2], > 30 µM; in test [3] it was > 10 µM; at Melanocortin receptor 3 it was 18.8 µM; in test [4], > 30 µM. The AC50 on Glucocorticoid receptor is > 30 µM.
As for `Cc1ccccc1-n1c(CF)nc2ccc(N)cc2c1=O` [AFLOQUALONE], the AC50 (in [1]; on Vasopressin V1a receptor; in test [2]; in [3]; on Melanocortin receptor 3; in [4]) was > 30 µM throughout. In addition, the AC50 in [5] and in [6] was > 30 µM throughout.
Take `C[C@H](N[C@@H](CCc1ccccc1)C(=O)O)C(=O)N1Cc2ccccc2C[C@H]1C(=O)O`: the AC50 in test [7] was > 30 µM.
For `CCCn1cnc2c1c(=O)n(CCCCC(C)=O)c(=O)n2C` [PROPENTOFYLLINE], the AC50 in test [7] is > 30 µM.
For the molecule `O=C(O)c1cccnc1Nc1cccc(C(F)(F)F)c1` [NIFLUMIC ACID], the AC50 in test [1] is > 10 µM; in test [2] it was > 10 µM; in [3], > 30 µM; at Melanocortin receptor 3 it was > 10 µM; in [4] it was > 10 µM; at Glucocorticoid receptor it was > 10 µM. Moreover, the AC50 in [5] and in test [6] was > 10 µM throughout.
Turning to `Cc1cc2c(cc1S(N)(=O)=O)S(=O)(=O)CCC2`, the AC50 in [7] is > 30 µM.
`CC(=O)OCC(=O)[C@@]1(O)CC[C@H]2[C@@H]3CCC4=CC(=O)CC[C@]4(C)[C@H]3[C@@H](O)C[C@@]21C` [HYDROCORTISONE ACETATE]: in [7], the AC50 is > 30 µM.
Consider `COC(=O)[C@H]1[C@H]2C[C@@H]3c4[nH]c5cc(OC)ccc5c4CCN3C[C@H]2C[C@@H](OC(=O)c2cc(OC)c(OC)c(OC)c2)[C@@H]1OC` [RESERPINE], for which the AC50 in test [7] is > 30 µM; on Vasopressin V1a receptor, > 10 µM; in test [2] it was > 10 µM; in test [3] it was > 30 µM; on Melanocortin receptor 3, > 10 µM; in [4], > 10 µM. For the same molecule, the AC50 on Glucocorticoid receptor was > 10 µM; in test [5] it was 13 µM; in test [6], > 30 µM.
